Results from US7772241B2, “Variolin derivatives and their use as antitumor agents” (Pharma Mar S.A., priority 2001, dated 2010).
Like-named read-outs stand apart in the source and are kept apart here. One block for each molecule: values may come before it.

Columns and labels:
HT-29 = assay: Inhibition of cells growth by colorimetric (SRB) assay, HT-29; conditions: for CC50: read-out: LC50 HT-29, SRB assay, 48 hours exposure
In short: (§1)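 Human tumour cells in RPMI 1640 with 10% FBS were seeded at 5×10^3 cells/well, allowed to attach for 18 h, then exposed to samples at 10 to 10^−8 μg/ml for 48 h. Growth was measured by SRB staining after TCA fixation, with absorbance read at 490 nm in triplicate wells.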

A-549 = assay: Inhibition of cells growth by colorimetric (SRB) assay, A-549
In short: as §1

[1] = Inhibition of cells growth by colorimetric (SRB) assay, HMEC1; conditions: human, HMEC1 cells, LC50 H-MEC-1, SRB assay, 48 hours exposure
HMEC1 = assay: as above; conditions: for GI50: Homo sapiens, HMEC-1, 48 h, read-out: GI50 H-MEC-1, SRB assay, 48 hours exposure; for TGI H-MEC-1: SRB assay, 48 hours exposure, in M (unit assumed)
IGROV-ET = assay: Inhibition of cells growth by colorimetric (SRB) assay, IGROV-ET; conditions: for GI50 / CC50: Homo sapiens, 48 h; for GI50: read-out: GI50 IGROV-ET, SRB assay, 48 hours exposure; for CC50: read-out: LC50 IGROV-ET, SRB assay, 48 hours exposure; for TGI IGROV-ET: SRB assay, 48 hours exposure
In short: as §1

PANC-1 = assay: Inhibition of cells growth by colorimetric (SRB) assay, PANC-1; conditions: for GI50: read-out: GI50 PANC-1, SRB assay, 48 hours exposure
In short: as §1

LNCaP = assay: Inhibition of cells growth by colorimetric (SRB) assay, LNCaP; conditions: for GI50 / CC50: Homo sapiens, LNCaP, 48 h; for GI50: read-out: GI50 LN-caP, SRB assay, 48 hours exposure; for CC50: read-out: LC50 LN-caP, SRB assay, 48 hours exposure; for TGI LN-caP: SRB assay, 48 hours exposure
In short: as §1

DU-145 = assay: Inhibition of cells growth by colorimetric (SRB) assay, DU-145; conditions: for GI50: read-out: GI50 DU-145, SRB assay, 48 hours exposure
In short: as §1

IGROV-1 = assay: Inhibition of cells growth by colorimetric (SRB) assay, IGROV-1; conditions: for GI50 / CC50: Homo sapiens, IGROV-1, 48 h; for GI50: read-out: GI50 IGROV, SRB assay, 48 hours exposure; for CC50: read-out: LC50 IGROV, SRB assay, 48 hours exposure; for TGI IGROV: SRB assay, 48 hours exposure
In short: as §1

SK-BR-3 = assay: Inhibition of cells growth by colorimetric (SRB) assay, SK-BR-3
In short: as §1

SK-MEL-28 = assay: Inhibition of cells growth by colorimetric (SRB) assay, SK-MEL-28; conditions: for GI50: read-out: GI50 MEL-28, SRB assay, 48 hours exposure
In short: as §1

K-562 = assay: Inhibition of cells growth by colorimetric (SRB) assay, K-562; conditions: for GI50 / CC50: Homo sapiens, K562, 48 h; for GI50: read-out: GI50 K-562, SRB assay, 48 hours exposure; for CC50: read-out: LC50 K-562, SRB assay, 48 hours exposure; for TGI K-562: SRB assay, 48 hours exposure
In short: as §1

LoVo = assay: Inhibition of cells growth by colorimetric (SRB) assay, LoVo
In short: as §1

LoVo-Dox = assay: Inhibition of cells growth by colorimetric (SRB) assay, LoVo-Dox
In short: as §1

[2] = Homo sapiens, HT-29, 48 h, read-out: GI50 HT-29, SRB assay, 48 hours exposure
[3] = Homo sapiens, A549, 48 h, read-out: GI50 A-549, SRB assay, 48 hours exposure
[4] = Homo sapiens, A549, 48 h, read-out: LC50 A-549, SRB assay, 48 hours exposure

SMILES: CSc1nccc(-c2c3c(OCc4ccccc4)ccnc3n3c(N)nccc23)n1 [Compound 94]
GI50 (HT-29; [2]): 24.1 µM | CC50 (HT-29; Homo sapiens, HT-29, 48 h): 24.1 µM | TGI HT-29 (HT-29; SRB assay, 48 hours exposure): 2.41E−05 | GI50 (A-549; [3]): 24.1 µM | CC50 (A-549; [4]): 24.1 µM | TGI A-549 (A-549; SRB assay, 48 hours exposure): 2.41E−05 | CC50 at 48 h [1]: 24.1 µM | GI50 (HMEC1): 9.19 µM | TGI H-MEC-1 (HMEC1): 1.97E−05

SMILES: COc1nccc(-c2c3c(OCc4ccccc4)ccnc3n3c(N)nccc23)n1 [Compound 102]
GI50 (HT-29; [2]): 25.1 µM | CC50 (HT-29; Homo sapiens, HT-29, 48 h): 25.1 µM | TGI HT-29 (HT-29; SRB assay, 48 hours exposure): 2.51E−05 | GI50 (A-549; [3]): 25.1 µM | CC50 (A-549; [4]): 25.1 µM | TGI A-549 (A-549; SRB assay, 48 hours exposure): 2.51E−05 | CC50 at 48 h [1]: 19.7 µM | GI50 (HMEC1): 6 µM | TGI H-MEC-1 (HMEC1): 1.09E−05

SMILES: COc1ccnc2c1c(-c1ccnc(N)n1)c1ccnc(N)n12 [Compound 114]
GI50 (IGROV-ET): 1.51 µM | CC50 (IGROV-ET): 25.4 µM | TGI IGROV-ET (IGROV-ET): 3.29E−06 | CC50 (HT-29; Homo sapiens, HT-29, 48 h): 32.5 µM | TGI HT-29 (HT-29; SRB assay, 48 hours exposure): 3.25E−06 | GI50 (HT-29; read-out: GI50 HT-29, SRB assay, 48 hours exposure): 1.04 µM | GI50 (PANC-1; Homo sapiens, PANC-1, 48 h): 1.35 µM | CC50 (PANC-1; Homo sapiens, PANC-1, 48 h, read-out: LC50 PANC-1, SRB assay, 48 hours exposure): 32.5 µM | TGI PANC-1 (PANC-1; SRB assay, 48 hours exposure): 6.18E−06 | GI50 (LNCaP): 0.625 µM | CC50 (LNCaP): 2.35 µM | TGI LN-caP (LNCaP): 1.21E−06 | GI50 (DU-145; Homo sapiens, DU-145, 48 h): 0.732 µM | TGI DU-145 (DU-145; SRB assay, 48 hours exposure): 1.75E−06 | CC50 (DU-145; read-out: LC50 DU-145, SRB assay, 48 hours exposure): 6.22 µM | TGI A-549 (A-549; SRB assay, 48 hours exposure): 1.72E−06 | GI50 (A-549; read-out: GI50 A-549, SRB assay, 48 hours exposure): 0.553 µM | CC50 (A-549; read-out: LC50 A-549, SRB assay, 48 hours exposure): 8.23 µM | GI50 (IGROV-1): 0.843 µM | CC50 (IGROV-1): 15.8 µM | TGI IGROV (IGROV-1): 1.81E−06 | GI50 (LoVo; Homo sapiens, LoVo, 48 h, read-out: GI50 LOVO, SRB assay, 48 hours exposure): 0.54 µM | TGI LOVO (LoVo; SRB assay, 48 hours exposure): 1.98E−06 | CC50 (LoVo; read-out: LC50 LOVO, SRB assay, 48 hours exposure): 10.3 µM | GI50 (LoVo-Dox; Homo sapiens, 48 h, read-out: GI50 LOVO-DOX, SRB assay, 48 hours exposure): 0.827 µM | CC50 (LoVo-Dox; Homo sapiens, 48 h, read-out: LC50 LOVO-DOX, SRB assay, 48 hours exposure): 32.5 µM | TGI LOVO-DOX (LoVo-Dox; SRB assay, 48 hours exposure): 2.41E−06 | GI50 (SK-MEL-28; Homo sapiens, SK-MEL-28, 48 h): 0.605 µM | TGI MEL-28 (SK-MEL-28; SRB assay, 48 hours exposure): 1.20E−06 | CC50 (SK-MEL-28; read-out: LC50 MEL-28, SRB assay, 48 hours exposure): 2.4 µM | CC50 at 48 h [1]: 2.65 µM | GI50 (HMEC1): 0.67 µM | TGI H-MEC-1 (HMEC1): 1.33E−06 | GI50 (K-562): 1.7 µM | CC50 (K-562): 16.2 µM | TGI K-562 (K-562): 2.98E−06

Second part, led by results:

GI50 (HT-29; [2]): 12.2 µM | GI50 (A-549; [3]): 6.58 µM
SMILES: COc1ccc(CNc2ccnc3c2c(-c2ccnc(SC)n2)c2ccnc(NCc4ccc(OC)cc4)n23)cc1 [Compound 85]
CC50 (HT-29; Homo sapiens, HT-29, 48 h): 17.7 µM | TGI HT-29 (HT-29; SRB assay, 48 hours exposure): 1.77E−05 | CC50 (A-549; [4]): 17.7 µM | TGI A-549 (A-549; SRB assay, 48 hours exposure): 1.77E−05 | CC50 at 48 h [1]: 17.7 µM | GI50 (HMEC1): 6.19 µM | TGI H-MEC-1 (HMEC1): 1.77E−05

GI50 (HT-29; [2]): 2.04 µM | GI50 (A-549; [3]): 1.76 µM
SMILES: CSc1nccc(-c2c3c(N)ccnc3n3c(N)nccc23)n1 [Compound 92]
CC50 (HT-29; Homo sapiens, HT-29, 48 h): 30.9 µM | TGI HT-29 (HT-29; SRB assay, 48 hours exposure): 3.09E−05 | CC50 (A-549; [4]): 24.4 µM | TGI A-549 (A-549; SRB assay, 48 hours exposure): 6.03E−06 | CC50 at 48 h [1]: 30.9 µM | GI50 (HMEC1): 0.782 µM | TGI H-MEC-1 (HMEC1): 3.09E−06

GI50 (HT-29; [2]): 22.4 µM | GI50 (A-549; [3]): 22.4 µM
SMILES: CS(=O)(=O)c1nccc(-c2c3c(OCc4ccccc4)ccnc3n3c(N)nccc23)n1 [Compound 99]
CC50 (HT-29; Homo sapiens, HT-29, 48 h): 22.4 µM | TGI HT-29 (HT-29; SRB assay, 48 hours exposure): 2.24E−05 | CC50 (A-549; [4]): 22.4 µM | TGI A-549 (A-549; SRB assay, 48 hours exposure): 2.24E−05 | CC50 at 48 h [1]: 22.4 µM | GI50 (HMEC1): 8.2 µM | TGI H-MEC-1 (HMEC1): 2.24E−05

GI50 (PANC-1; Homo sapiens, PANC-1, 48 h): 9.4 µM | GI50 (LNCaP): 1.4 µM | GI50 (DU-145; Homo sapiens, DU-145, 48 h): 1.63 µM | GI50 (A-549; [3]): 5.49 µM | GI50 (SK-BR-3; Homo sapiens, SK-BR-3, 48 h, read-out: GI50 SK-BR-3, SRB assay, 48 hours exposure): 1.47 µM | GI50 (SK-MEL-28; Homo sapiens, SK-MEL-28, 48 h): 1.26 µM | GI50 (K-562): 7.6 µM
SMILES: COc1nccc(-c2c3c(OC)ccnc3n3c(N)nccc23)n1 [Compound 109]
GI50 (IGROV-ET): 7.17 µM | CC50 (IGROV-ET): 31 µM | TGI IGROV-ET (IGROV-ET): 2.21E−05 | CC50 (LNCaP): 31 µM | TGI LN-caP (LNCaP): 4.81E−06 | CC50 (DU-145; Homo sapiens, DU-145, 48 h, read-out: LC50 DU-145, SRB assay, 48 hours exposure): 31 µM | TGI DU-145 (DU-145; SRB assay, 48 hours exposure): 3.10E−05 | CC50 (A-549; [4]): 31 µM | TGI A-549 (A-549; SRB assay, 48 hours exposure): 2.33E−05 | GI50 (IGROV-1): 3.07 µM | CC50 (IGROV-1): 31 µM | TGI IGROV (IGROV-1): 1.46E−05 | CC50 (SK-BR-3; Homo sapiens, SK-BR-3, 48 h, read-out: LC50 SK-BR-3, SRB assay, 48 hours exposure): 31 µM | TGI SK-BR-3 (SK-BR-3; SRB assay, 48 hours exposure): 5.40E−06 | CC50 (SK-MEL-28; Homo sapiens, SK-MEL-28, 48 h, read-out: LC50 MEL-28, SRB assay, 48 hours exposure): 22.4 µM | TGI MEL-28 (SK-MEL-28; SRB assay, 48 hours exposure): 6.64E−06 | CC50 at 48 h [1]: 31 µM | GI50 (HMEC1): 2.04 µM | TGI H-MEC-1 (HMEC1): 2.17E−05 | CC50 (K-562): 31 µM | TGI K-562 (K-562): 2.41E−05
